Test results taken from US20020128232A1, “Heterocyclic angiogenesis inhibitors” (priority 2000, published 2002).
Structures can show the parent of a compound that is named as a salt. Where two headings read alike, the source gives them in different places. Marks after values point to notes of the source that are not given here.

Test system: rat aorta ring
Assay: Rat aorta assay for angiogenesis inhibition (rat aorta ring model, micro-vessel growth scored)
Type: cell-based
Conditions: for inhibition at 100 µg/mL / inhibition at 20 µg/mL / inhibition at 50 µg/mL / inhibition at 4 µg/mL / inhibition at 10 µg/mL: Rattus norvegicus
Excerpt: The rat aorta ring model based on that described by Nicosia and Ottinetti (Nicosia, R. F. et al., Lab. Investigation 63: 115, 1990; Nicosia, R. F. et al., Cell. Dev. Bio. 26: 119-128, 1990), was used throughout the assay.
The agarose was made up as a 1.5% solution in distilled water and brought to the boil to form a clear solution which was poured into sterile 9 cm petri dishes, covered and allowed to cool and set.
Maintaining sterile conditions, agarose rings were obtained by punching two concentric circles, with sterile 10 and 17 mm hole punches, respectively, in the agarose gel. Using sterile forceps, the rings are removed and placed, three per well in each of the 6-well plates.
The MEM was prepared according to manufacturer's directions, but before filtering through a 0.22 μm filter, HEPES and L-glutamine were added to give 10 mM and 1 mM concentrations respectively with pH adjusted to 7.4. Eight hundred mL of this medium were filtered through a 0.2 μm filter along with the antibiotics (50 mg/L Gentamycin sulphate and 2.5 mg/L Amphotericin B) and 200 mL of FCS (to give 20%) to yield one liter of medium.
The aorta was removed from a 3-4 month male Copenhagen rat and transferred to a dissecting dish where it was cleaned and carefully stripped of the fibroadipose tissue surrounding it. Rings of 0.5 mm were cut, using a fresh scalpel blade, from the length of the aorta. These were kept under sterile conditions in a biohazard hood where they were washed 12 times with MEM.
Before transferring the aortic rings to the culture plate, the bottom of each agarose well was coated with 150 μL of clotting fibrinogen. Fibrinogen was made up as a […] solution in MEM, while Thrombin made up in distilled water to give a concentration of 50 U/mL. The fibrinogen (1 mL) and the thrombin (20 μL) reacted within 30 sec to form a solid gel.
The aortic rings were transferred to the 6-well plates, with one ring placed in the center of each agarose well. Fresh fibrinogen/thrombin was made up as before and 150 μL was used to seal in each aortic ring. The gels were rested for approximately 2 hours before the medium was added.
[…] The compounds were made up as 6 mg/mL solution in water or DMSO. The test solutions were added to each well with the medium.
Six mL of MEM were carefully added to each of three wells to become the controls. MEM, along with the test compounds were added to the remaining wells and all were covered and transferred to the CO2 Incubator at 37° C., where they were kept for the next 14 days.
However, by the fifth day, there were noticeable changes in the tissue. Micro-vessels were seen and scored. We have based the scoring method on that used by Liekens et al., (Liekins, S. et al., Oncol. Res. 9: 173-181, 1997) in which 0 meant no vessels and 10 meant maximum vessels; the score is then converted into a percentage inhibition of vessel growth.

[1] = 100 μg/ml, test slow to establish, read after 15 days (footnote *), read-out: Growth inhibition after 15 days
[2] = 120 h, 20 μg/ml, day 5, read-out: Growth Inhibition Day 5 (%)
[3] = 120 h, 50 μg/ml, day 5, read-out: Growth Inhibition Day 5 (%)
[4] = 264 h, 20 μg/ml, day 11, read-out: Growth Inhibition Day 11 (%)
[5] = 264 h, 50 μg/ml, day 11, read-out: Growth Inhibition Day 11 (%)
[6] = 120 h, 10 μg/ml, day 5, read-out: Growth Inhibition Day 5 (%)
[7] = 120 h, 100 μg/ml, day 5, read-out: Growth Inhibition Day 5 (%)
[8] = 264 h, 100 μg/ml, day 11, read-out: Growth Inhibition Day 11 (%)

Question: With `O=C(Nc1cccc(B(O)O)c1)n1c(=O)[nH]c2ccccc21` [Example 2, N-(Phenyl-3-boronic acid)-2,3-dihydro-2-oxo-1H-benzimidazole-1-carboxamide] as the compound, how does the “Growth Inhibition Day 5 (%)” value (4 μg/ml, day 5) read?
Answer: 50%

Question: What about the “Growth Inhibition Day 11 (%)” value (4 μg/ml, day 11) of the same compound?
Answer: 0%

Question: What about the “Growth Inhibition Day 5 (%)” value (20 μg/ml, day 5) of the same compound?
Answer: 100%

Question: What about the “Growth Inhibition Day 11 (%)” value (20 μg/ml, day 11) of the same compound?
Answer: 100%

Question: And the “Growth Inhibition Day 5 (%)” value (50 μg/ml, day 5)?
Answer: 100%

Question: What about the “Growth Inhibition Day 11 (%)” value (50 μg/ml, day 11) of the same compound?
Answer: 100%

Question: What about the “Growth inhibition after 15 days” value (100 μg/ml, test slow to establish, read after 15 days (footnote *)) of the same compound?
Answer: 100* %

Question: How did the “Growth Inhibition Day 5 (%)” value (100 μg/ml, day 5) turn out when `O=C([O-])c1cccc(NC(=O)n2c(=O)[nH]c3ccccc32)c1.[Na+]` [Sodium salt of 3, N-(3-Carboxyphenyl)-2,3-dihydro-2-oxo-1H-benzimidazole-1-carboxamide Sodium Salt] was run?
Answer: 70%

Question: And the “Growth Inhibition Day 11 (%)” value (100 μg/ml, day 11)?
Answer: 80%

Question: Which results are given for `O=C(O)c1ccc(NC(=O)n2c(=O)[nH]c3ccccc32)cc1` [Example 4, N-(4-Carboxyphenyl)-2,3-dihydro-2-oxo-1H-benzimidazole-1-carboxamide]?
Answer: inhibition at 100 µg/mL [1]: 100%; inhibition at 20 µg/mL [2]: 100%; inhibition at 50 µg/mL [3]: 90%; inhibition at 20 µg/mL [4]: 70%; inhibition at 50 µg/mL [5]: 95%

Question: `O=C(Nc1ccccc1)n1c(=O)[nH]c2ccccc21` [Example 17, 2-Oxo-2,3-dihydrobenzimidazole-1-carboxylic acid phenylamide] was tested. Which inhibition at 4 µg/mL (120 h, 4 μg/ml, day 5) did it give?
Answer: 50%

Question: What about the inhibition at 20 µg/mL [2] of the same compound?
Answer: 30%

Question: What about the inhibition at 50 µg/mL [3] of the same compound?
Answer: 95%

Question: `CC(C)(C)c1ccc(NC(=O)n2c(=O)[nH]c3ccccc32)cc1` [Example 16, 2-Oxo-2,3-dihydrobenzoimidazole-1-carboxylic acid (4-t-butylphenyl)amide] was tested. Which inhibition at 10 µg/mL [6] did it give?
Answer: 10%

Question: How did the inhibition at 4 µg/mL (120 h, 4 μg/ml, day 5) turn out when `O=C(Nc1ccccc1)n1c(=O)[nH]c2cncnc21` [Example 14, 8-Oxo-7,8-dihydropurine-9-carboxylic acid phenylamide] was run?
Answer: 20%

Question: What about the inhibition at 20 µg/mL [2] of the same compound?
Answer: 40%

Question: And the inhibition at 50 µg/mL [3]?
Answer: 20%

Question: How did the inhibition at 100 µg/mL [1] turn out when `O=C(O)Cc1ccc(NC(=O)n2c(=O)[nH]c3ccccc32)cc1` [Example 7, N-(4-Carboxymethylphenyl)-2,3-dihydro-2-oxo-1H-benzimidazole-1-carboxamide] was run?
Answer: 100%

Question: What about the inhibition at 20 µg/mL [2] of the same compound?
Answer: 80%

Question: What about the inhibition at 50 µg/mL [3] of the same compound?
Answer: 80%

Question: And the inhibition at 20 µg/mL [4]?
Answer: 0%

Question: And the inhibition at 50 µg/mL [5]?
Answer: 100%

Question: Which inhibition at 10 µg/mL [6] does the source give for `O=C1NS(=O)(=O)c2ccc(NC(=O)n3c(=O)[nH]c4ccccc43)cc21` [Example 20, 2-oxo-2,3-dihydrobenzimidazole-1-carboxylic acid (1,1,3-trioxo-2,3-dihydro-1H-1λ^6-benzo[d]isothiazol-5-yl)amide] here?
Answer: 100%

Question: What about the inhibition at 10 µg/mL (264 h, 10 μg/ml, day 11, read-out: Growth Inhibition Day 11 (%)) of the same compound?
Answer: 70%

Question: `O=C(O)c1ccccc1NC(=O)n1c(=O)[nH]c2ccccc21` [Example 5, N-(2-Carboxyphenyl)-2,3-dihydro-2-oxo-1H-benzimidazole-1-carboxamide] was tested. Which inhibition at 100 µg/mL [1] did it give?
Answer: 90%

Question: What about the inhibition at 20 µg/mL [2] of the same compound?
Answer: 0%

Question: What about the inhibition at 50 µg/mL [3] of the same compound?
Answer: 10%

Question: And the inhibition at 20 µg/mL [4]?
Answer: 0%

Question: What about the inhibition at 50 µg/mL [5] of the same compound?
Answer: 0%

Question: How did the inhibition at 100 µg/mL [7] turn out when `CCOC(=O)c1cccc(NC(=O)n2c(=O)[nH]c3ccccc32)c1` [Example 9, N-(3-Ethoxycarbonylphenyl)-2,3-dihydro-2-oxo-1H-benzimidazole-1-carboxamide] was run?
Answer: 70%

Question: And the inhibition at 100 µg/mL [8]?
Answer: 10%

Question: For `O=C(Nc1ccc(B(O)O)cc1)n1c(=O)[nH]c2ccccc21` [Example 28, N-(phenyl-4-boronic acid)-2,3-dihydro-2-oxo-1H-benzimidazole-1-carboxamide], which “Growth Inhibition Day 11 (%)” value (4 μg/ml, day 11) is on record?
Answer: 20%

Question: What about the “Growth Inhibition Day 11 (%)” value (10 μg/ml, day 11) of the same compound?
Answer: 20%

Question: For `C=CCNC(=O)n1c(=O)[nH]c2ccccc21` [Example 13, 2-Oxo-2,3-dihydrobenzoimidazole-1-carboxylic acid allylamide], which inhibition at 4 µg/mL (120 h, 4 μg/ml, day 5) is on record?
Answer: 0%

Question: And the inhibition at 20 µg/mL [2]?
Answer: 20%

Question: For `O=C(Nc1ccc(OP(=O)(O)O)cc1)n1c(=O)[nH]c2ccccc21` [Example 26, Phosphoric acid mono-{4[(2-oxo-2,3-dihydrobenzimidazole-1-carbonyl)-amino]-phenyl} ester], which inhibition at 10 µg/mL (120 h, read-out: Growth Inhibition Day 5 (%)) is on record?
Answer: 90%

Question: What about the inhibition at 10 µg/mL (264 h, read-out: Growth Inhibition Day 11 (%)) of the same compound?
Answer: 40%

Question: For `O=C(O)c1cc(NC(=O)n2c(=O)[nH]c3ccccc32)cc(C(=O)O)c1` [Example 23, 5-[(2-oxo-2,3-dihydrobenzimidazole-1-carbonyl)-amino]isophthalic acid], which inhibition at 10 µg/mL [6] is on record?
Answer: 10%

Question: How did the inhibition at 4 µg/mL (120 h, 4 μg/ml, day 5) turn out when `O=C(Nc1ccccc1)n1c(=S)[nH]c2ccccc21` [Example 11, 2-Thioxo-2,3-dihydrobenzoimidazole-1-carboxylic acid phenylamide] was run?
Answer: 0%

Question: And the inhibition at 50 µg/mL [3]?
Answer: 100%

Question: What does the source list for `O=C(C1CCCN1)n1c(=O)[nH]c2ccccc21` (stereo not drawn) [Example 12, 1-(Pyrrolidine-2-carbonyl)-1,3-dihydrobenzoimidazol-2-one trifluoroacetic acid salt]?
Answer: inhibition at 4 µg/mL (120 h, 4 μg/ml, day 5): 50%; inhibition at 20 µg/mL [2]: 70%

Question: What does the source list for `O=C(O)c1cccc(NC(=O)n2c(=O)[nH]c3ccccc32)c1` [Example 3, N-(3-Carboxyphenyl)-2,3-dihydro-2-oxo-1H-benzimidazole-1-carboxamide]?
Answer: inhibition at 100 µg/mL [7]: 60%; inhibition at 100 µg/mL [8]: 60%
